Tests used:
[1] = system: A-549 cells; test: Antiproliferative assay, A-549; format: cell-based; conditions: Homo sapiens, A549; A-549 lung cancer cell line; read-out: Antiproliferative activity IC50 ± SEM, A-549
Experimental: (§1) 4.2.2. Assay for antiproliferative effect
(§2) To explore the antiproliferative potential of compounds propidium iodide fluorescence assay was performed using different cell lines such as Panc-1 (pancreas cancer cell line), MCF-7 (breast cancer cell line), HT-29 (colon cancer cell line) and A-549 (epithelial cancer cell line), respectively. To calculate the total nuclear DNA, a fluorescent dye (propidium iodide, PI) is used which can attach to the DNA, thus offering a quick and precise technique. PI cannot pass through the cell membrane and its signal intensity can be considered as directly proportional to quantity of cellular DNA. Cells whose cell membranes are damaged or have changed permeability are counted as dead ones. The assay was performed by seeding the cells of different cell lines at a density of 3000-7500 cells/well (in200μl medium) in culture plates followed by incubation for 24h at 37 °C in humidified 5%CO2/95% air atmospheric conditions. The medium was removed; the compounds were added to the plates at 10 μM concentrations (in 0.1% DMSO) in triplicates, followed by incubation for 48h. DMSO (0.1%) was used as control. After incubation, medium was removed followed by the addition of PI (25 μl, 50μg/mL in water/medium) to each well of the plates. At - 80 °C, the plates were allowed to freeze for 24 h, followed by thawing at 25 °C. A fluorometer (Polar-Star BMG Tech) was used to record the readings at excitation and emission wavelengths of 530 and 620 nm for each well. The percentage cytotoxicity of compounds was calculated using […]
(§3) Where ATC= Absorbance of treated cells and AC= Absorbance of control. Erlotinib was used as positive control in the assay.

[2] = system: four human cancer cell lines (A-549, MCF-7, Panc-1, HT-29); test: Antiproliferative assay, average over four cancer cell lines (GI50); format: cell-based; conditions: for IC50: Homo sapiens, average of IC50 against A-549, MCF-7, Panc-1, HT-29
Experimental: See Supplementary Appendix SA1 for more details.
as §1
To explore the antiproliferative potential of compounds propidium iodide fluorescence assay was performed using different cell lines such as Panc-1 (pancreas cancer cell line), MCF-7 (breast […]
respectively. To calculate the total nuclear DNA, a fluorescent dye (propidium iodide, PI) is used which can attach to the DNA, thus offering a quick and precise technique. PI cannot pass through the cell membrane and its signal intensity can be considered as directly proportional to quantity of cellular DNA. Cells whose cell membranes are damaged or have changed permeability are counted as dead ones. The assay was performed by seeding the cells of different cell lines at a density of […]
The medium was removed; the compounds were added to the plates at 10 μM concentrations (in 0.1% DMSO) in triplicates, followed by incubation for 48h. DMSO (0.1%) was used as control. After incubation, medium was removed followed by the addition of PI (25 μl, 50μg/mL in water/medium) to each well of the plates. At - 80 °C, the plates were allowed to freeze for 24 h, followed by thawing at 25 °C. A fluorometer (Polar-Star BMG Tech) was used to record the readings at excitation and emission wavelengths of 530 and 620 nm for each well. The percentage cytotoxicity of compounds was calculated using […]
Where ATC= Absorbance of treated cells and AC= Absorbance of control. […]
positive control in the assay.

[3] = system: Panc-1 cells; test: Antiproliferative assay, Panc-1; format: cell-based; conditions: Homo sapiens; Panc-1 pancreatic cancer cell line; read-out: Antiproliferative activity IC50 ± SEM, Panc-1
Experimental: as §1, §2, §3

[4] = Cell viability assay (MTT) on normal mammary epithelial cells; format: cell-based, human; conditions: human, MCF-10A normal mammary gland epithelial cells, MCF-10A normal cells, 4 days incubation
Experimental: This test investigates the effects of the new compounds 3–16 on normal cell lines to determine their safety. The normal human mammary gland epithelial (MCF-10 A) cell line was used to test the viability of the tested compounds. After 4 days of incubation on MCF-10 A cells within 50 µM of each investigated compound, cell viability was determined using the MTT assay ([Gomaa et al., 2020]; [Marzouk et al., 2020]).
The normal human mammary gland epithelial (MCF-10A) cell line was used to test the viability of the tested compounds. After 4 days of incubation on MCF-10A cells within 50 µM of each investigated compound, cell viability was determined using the MTT assay ([Gomaa et al., 2020]; [Marzouk et al., 2020]). Refer to Supplementary Appendix SA1 (supp. File) for more details.
4.2. Biological evaluation
4.2.1 Cell Viability assay (MTT assay)
MTT assay was performed to investigate the effect of the synthesized compounds on mammary epithelial cells (MCF-10A). The cells were propagated in medium consisting of Ham's F-12 medium/ Dulbecco's modified Eagle's medium (DMEM) (1:1) supplemented with 10% foetal calf serum, 2 mM glutamine, insulin (10 μg/mL), hydrocortisone (500 ng/mL) and epidermal growth factor (20 ng/mL). Trypsin ethylenediamine tetra acetic acid (EDTA) was used to passage the cells after every 2-3 days. 96-well flat-bottomed cell culture plates were used to seed the cells at a density of 10^4 cells mL-1. The medium was aspirated from all the wells of culture plates after 24 h followed by the addition of synthesized compounds (in 200 μL medium to yield a final concentration of 0.1% (v/v) dimethyl sulfoxide) into individual wells of the plates. Four wells were designated to a single compound. The plates were allowed to incubate at 37°C for 96 h. Afterwards, the medium was aspirated and 3-[4,5-dimethylthiazol-2-yl]-2,5-diphenyltetrazolium bromide (MTT) (0.4 mg/mL) in medium was added to each well and subsequently incubated for 3 h. The medium was aspirated and 150 μL dimethyl sulfoxide (DMSO) was added to each well. The plates were vortexed followed by the measurement of absorbance at 540 nm on a microplate reader. The results were presented as inhibition (%) of proliferation in contrast to controls comprising 0.1%

[5] = system: MCF-7 cells; test: Antiproliferative assay, MCF-7; format: cell-based; conditions: Homo sapiens, MCF7; MCF-7 breast cancer cell line; read-out: Antiproliferative activity IC50 ± SEM, MCF-7
Experimental: as §1, §2, §3

[6] = system: HT-29 cells; test: Antiproliferative assay, HT-29; format: cell-based; conditions: Homo sapiens; HT-29 colon cancer cell line; read-out: Antiproliferative activity IC50 ± SEM, HT-29
Experimental: as §1, §2, §3

[7] = target: T1, aromatase (CYP19) (Homo sapiens, UniProt P11511); test: Aromatase inhibitory assay (Gentest kit, DBF fluorometric substrate)
T1 sequence (P11511 1-503): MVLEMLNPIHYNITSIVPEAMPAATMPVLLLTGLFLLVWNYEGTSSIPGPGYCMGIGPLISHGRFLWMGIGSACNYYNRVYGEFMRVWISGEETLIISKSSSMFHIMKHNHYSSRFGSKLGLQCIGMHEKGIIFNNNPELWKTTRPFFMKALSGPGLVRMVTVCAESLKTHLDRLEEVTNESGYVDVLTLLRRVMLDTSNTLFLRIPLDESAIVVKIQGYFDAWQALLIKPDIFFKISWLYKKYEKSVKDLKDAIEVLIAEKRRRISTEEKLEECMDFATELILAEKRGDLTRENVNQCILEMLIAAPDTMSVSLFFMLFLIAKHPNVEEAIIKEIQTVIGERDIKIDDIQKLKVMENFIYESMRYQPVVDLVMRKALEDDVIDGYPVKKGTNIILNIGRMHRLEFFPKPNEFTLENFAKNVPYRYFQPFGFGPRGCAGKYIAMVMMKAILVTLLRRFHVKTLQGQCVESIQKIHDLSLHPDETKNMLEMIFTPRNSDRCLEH
Experimental: The aromatase inhibitory effect was performed using the method reported by Stressor et al.[35].
This method was carried out according to the Gentest kit using CYP19 enzyme and DBF as a
fluorometric substrate. DBF was dealkylated by aromatase and then hydrolyzed to give the
fluorescein product. Briefly, 100 μL of cofactor, containing 78.4 μL of 50 mM phosphate buffer
(pH 7.4); 20 μL of 20x NADPH-generating system (26 mM NADP+, 66 mM glucose-6-phosphate,
and 66 mM MgCl2); and 1.6 μL of 100 U/mL glucose-6-phosphate dehydrogenase, was pipetted
into a 96-well plate and preincubated in 37 °C (water bath) for 10 min. The reaction was initiated
by addition of 100 μL of enzyme/substrate mixture containing 77.3 μL of 50 mM
phosphate buffer (pH 7.4); 12.5 μL of 16 pmol/mL CYP19; 0.2 μL of 0.2 mM DBF, and 10 μL of
0.25 mM diluted tested sample or 10% DMSO as a negative control or letrozole as a positive
control. Fluorescence signal was recorded using an excitation wavelength of 490 nm and emission
Percentage of inhibition (%inhibition) was calculated
as shown in Equation (1).
assayed in triplicate. Finally, IC50 values were determined by plot of concentrations versus %

IC50 [1] [nM]	IC50 [2] [nM]	IC50 [3] [nM]	IC50 [5] [nM]	IC50 [6] [nM]	Fold less potent than compound 12 (GI50) [2] [fold]	melting point [°C]	IC50 [7] [nM]	Structure (SMILES)	viability at 4 days, 50 µM [4] [%]
40 ± 4	41	40 ± 4	43 ± 4	42 ± 4	1.7	–	–	CCc1c2cc(Cl)ccc2n2cc(Cc3ccccc3)[nH]c(=O)c12 [Compound 11, 3-Benzyl-8-chloro-10-ethylpyrazino[1,2-a]indol-1(2H)-one]	92
44 ± 4	45	44 ± 4	46 ± 4	46 ± 4	–	202 to 204	–	CCc1c2n(c3ccc(Cl)cc13)C(=O)C(c1ccccc1)NC2=O (stereo not shown) [Compound 14, 8-Chloro-10-ethyl-3-phenyl-2,3-dihydropyrazino [1,2-a] indole-1,4-dione]	90
34 ± 3	35	35 ± 3	36 ± 3	34 ± 3	–	210 to 212	28 ± 2	CCc1c(C(=O)NC(C(=O)OC)c2ccccc2)[nH]c2ccc(Cl)cc12 (stereo not shown) [Compound 13, Methyl 2-(5-chloro-3-ethyl-1h-indole-2-carboxamido)-2-phenylacetate]	91
69 ± 6	72	72 ± 7	76 ± 7	74 ± 7	–	213 to 215	–	CCc1c2n(c3ccc(Cl)cc13)C(O)C(c1ccccc1)NC2=O (stereo not shown) [Compound 15, 8-Chloro-10-ethyl-4-hydroxy-3-phenyl-3,4-dihydropyrazino [1,2-a] indol-1(2H)-one]	92
53 ± 5	54	54 ± 5	56 ± 5	54 ± 5	–	160 to 162	–	CCc1c2n(c3ccc(Cl)cc13)C(O)C(Cc1ccccc1)NC2=O (stereo not shown) [Compound 10, 3-benzyl-8-chloro-10-ethyl-4-hydroxy-3,4-dihydropyrazino [1,2-a] indol-1(2H)-one]	89

Continued, compound first:

Structure (SMILES)	IC50 [1] [nM]	IC50 [2] [nM]	IC50 [3] [nM]	IC50 [5] [nM]	IC50 [6] [nM]	Fold less potent than compound 12 (GI50) [2] [fold]	melting point [°C]	IC50 [7] [nM]	viability at 4 days, 50 µM [4] [%]
CCc1c(C(=O)NC(C(C)=O)C(=O)OCc2ccccc2)[nH]c2ccc(Cl)cc12 (stereo not shown) [Compound 4, benzyl 2-(5-chloro-3-ethyl-1h-indol-2-carboxamido)-3-oxobutanoate]	59 ± 5	62	60 ± 5	65 ± 6	64 ± 6	–	–	–	89
C#Cc1cccc(Nc2ncnc3cc(OCCOC)c(OCCOC)cc23)c1 [Erlotinib, reference compound]	30 ± 3	–	30 ± 3	40 ± 3	30 ± 3	–	–	–	–
CCc1c2cc(Cl)ccc2n2c(C)c(C(=O)O)[nH]c(=O)c12 [Compound 6, 8-chloro-10-ethyl-4-methyl-1-oxo-1,2-dihydropyrazino [1,2-a]indole-3-carboxylic acid]	65 ± 6	66	64 ± 6	68 ± 6	66 ± 6	–	270 to 272	–	92
CCc1c2n(c3ccc(Cl)cc13)C(=O)C(Cc1ccccc1)NC2=O (stereo not shown) [Compound 9, 3-benzyl-8-chloro-10-ethyl-2,3-dihydropyrazino [1,2-a] indole-1,4-dione]	48 ± 4	49	47 ± 4	50 ± 4	50 ± 5	–	196 to 198	–	91
CCc1c(C(=O)NC(C(=O)OCc2ccccc2)C(C)O)[nH]c2ccc(Cl)cc12 (stereo not shown) [Compound 3, Benzyl 2-(5-chloro-3-ethyl-1H-indol-2-carboxamido)-3-hydroxybutanoate]	57 ± 5	59	58 ± 5	62 ± 5	60 ± 5	–	–	–	91
CCOC(=O)C(Cc1ccccc1)NC(=O)c1[nH]c2ccc(Cl)cc2c1CC (stereo not shown) [Compound 8, ethyl 2-(5-chloro-3-ethyl-1h-indole-2-carboxamido)-3-phenylpropanoate]	37 ± 3	38	37 ± 3	40 ± 3	38 ± 3	–	–	33 ± 3	92
